In the supplement of paper PMC10307832:

Experiments:
Test in all cases: relative viability (nuclei count vs DMSO), 5 days (fraction); higher = more cells survive
FH535 = compound: CC1=C(C=CC(=C1)[N+](=O)[O-])NS(=O)(=O)C2=C(C=CC(=C2)Cl)Cl [FH535]
Procedure, shortened: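 Cells of lung cancer lines were placed in 1536-well plates and kept overnight at 37 °C. Pinning then delivered five library-drug doses (not always all listed), spaced by √10, onto plates anchored with vehicle, and the cells were left 5 days without changing medium. One step fixed, permeabilised and stained them with Hoechst, and MetaXpress counted nuclei in 4× images. Viability, as a median over plates, is treated-well nuclei divided by vehicle-well nuclei, with acceptance only at control CV below 25% and at least one doubling.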

FH535 + Bortezomib = compound: CC1=C(C=CC(=C1)[N+](=O)[O-])NS(=O)(=O)C2=C(C=CC(=C2)Cl)Cl [FH535] + CC(C)C[C@H](NC(=O)[C@H](Cc1ccccc1)NC(=O)c1cnccn1)B(O)O [Bortezomib] (partner 0.002 µM)
Procedure, shortened: (§1)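 One day after seeding in 1536-well plates, lung cancer cell lines were dosed by pin tool. Dosing was either single-drug or a fixed anchor-drug dose plus five library-drug doses (not always all listed) in √10 steps. After 5 days, nuclei were stained in one fix-and-stain step and counted on 4× images, and relative viability is the nuclei count of treated wells over that of vehicle wells, given as the median of duplicate plates.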

FH535 + Navitoclax = compound: CC1=C(C=CC(=C1)[N+](=O)[O-])NS(=O)(=O)C2=C(C=CC(=C2)Cl)Cl [FH535] + CC1(C)CCC(c2ccc(Cl)cc2)=C(CN2CCN(c3ccc(C(=O)NS(=O)(=O)c4ccc(N[C@H](CCN5CCOCC5)CSc5ccccc5)c(S(=O)(=O)C(F)(F)F)c4)cc3)CC2)C1 [Navitoclax] (partner 0.5 µM)
Procedure, shortened: as §1

FH535 + Foretinib = compound: CC1=C(C=CC(=C1)[N+](=O)[O-])NS(=O)(=O)C2=C(C=CC(=C2)Cl)Cl [FH535] + COc1cc2c(Oc3ccc(NC(=O)C4(C(=O)Nc5ccc(F)cc5)CC4)cc3F)ccnc2cc1OCCCN1CCOCC1 [Foretinib] (partner 0.25 µM)
Procedure, shortened: as §1

FH535 + Lapatinib = compound: CC1=C(C=CC(=C1)[N+](=O)[O-])NS(=O)(=O)C2=C(C=CC(=C2)Cl)Cl [FH535] + CS(=O)(=O)CCNCc1ccc(-c2ccc3ncnc(Nc4ccc(OCc5cccc(F)c5)c(Cl)c4)c3c2)o1 [Lapatinib] (partner 2 µM)
Procedure, shortened: as §1

FH535 + Pictilisib = compound: CC1=C(C=CC(=C1)[N+](=O)[O-])NS(=O)(=O)C2=C(C=CC(=C2)Cl)Cl [FH535] + CS(=O)(=O)N1CCN(Cc2cc3nc(-c4cccc5[nH]ncc45)nc(N4CCOCC4)c3s2)CC1 [Pictilisib] (partner 1 µM)
Procedure, shortened: as §1

FH535 + Crizotinib = compound: CC1=C(C=CC(=C1)[N+](=O)[O-])NS(=O)(=O)C2=C(C=CC(=C2)Cl)Cl [FH535] + C[C@@H](Oc1cc(-c2cnn(C3CCNCC3)c2)cnc1N)c1c(Cl)ccc(F)c1Cl [Crizotinib] (partner 1 µM)
Procedure, shortened: as §1

FH535 + Linsitinib = compound: CC1=C(C=CC(=C1)[N+](=O)[O-])NS(=O)(=O)C2=C(C=CC(=C2)Cl)Cl [FH535] + C[C@]1(O)C[C@@H](c2nc(-c3ccc4ccc(-c5ccccc5)nc4c3)c3c(N)nccn32)C1 [Linsitinib] (partner 1 µM)
Procedure, shortened: as §1

FH535 + Alpelisib = compound: CC1=C(C=CC(=C1)[N+](=O)[O-])NS(=O)(=O)C2=C(C=CC(=C2)Cl)Cl [FH535] + Cc1nc(NC(=O)N2CCC[C@H]2C(N)=O)sc1-c1ccnc(C(C)(C)C(F)(F)F)c1 [Alpelisib] (partner 2 µM)
Procedure, shortened: as §1

FH535 + Olaparib = compound: CC1=C(C=CC(=C1)[N+](=O)[O-])NS(=O)(=O)C2=C(C=CC(=C2)Cl)Cl [FH535] + O=C(c1cc(Cc2n[nH]c(=O)c3ccccc23)ccc1F)N1CCN(C(=O)C2CC2)CC1 [Olaparib] (partner 8 µM)
Procedure, shortened: as §1

Row | Cell Line | relative viability (FH535; 0.04 µM) | relative viability (FH535; 0.1265 µM) | relative viability (FH535; 0.4 µM) | relative viability (FH535; 1.265 µM) | relative viability (FH535 + Bortezomib; first compound 0.04 µM) | relative viability (FH535 + Bortezomib; first compound 0.1265 µM) | relative viability (FH535 + Bortezomib; first compound 0.4 µM) | relative viability (FH535 + Bortezomib; first compound 1.265 µM) | relative viability (FH535 + Navitoclax; first compound 0.04 µM) | relative viability (FH535 + Navitoclax; first compound 0.1265 µM) | relative viability (FH535 + Navitoclax; first compound 0.4 µM) | relative viability (FH535 + Navitoclax; first compound 1.265 µM) | relative viability (FH535 + Foretinib; first compound 0.04 µM) | relative viability (FH535 + Foretinib; first compound 0.1265 µM) | relative viability (FH535 + Foretinib; first compound 0.4 µM) | relative viability (FH535 + Foretinib; first compound 1.265 µM) | relative viability (FH535 + Lapatinib; first compound 0.04 µM) | relative viability (FH535 + Lapatinib; first compound 0.1265 µM) | relative viability (FH535 + Lapatinib; first compound 0.4 µM) | relative viability (FH535 + Lapatinib; first compound 1.265 µM) | relative viability (FH535 + Pictilisib; first compound 0.04 µM) | relative viability (FH535 + Pictilisib; first compound 0.1265 µM) | relative viability (FH535 + Pictilisib; first compound 0.4 µM) | relative viability (FH535 + Pictilisib; first compound 1.265 µM) | relative viability (FH535 + Crizotinib; first compound 0.04 µM) | relative viability (FH535 + Crizotinib; first compound 0.1265 µM) | relative viability (FH535 + Crizotinib; first compound 0.4 µM) | relative viability (FH535 + Crizotinib; first compound 1.265 µM) | relative viability (FH535 + Linsitinib; first compound 0.04 µM) | relative viability (FH535 + Linsitinib; first compound 0.1265 µM) | relative viability (FH535 + Linsitinib; first compound 0.4 µM) | relative viability (FH535 + Linsitinib; first compound 1.265 µM) | relative viability (FH535 + Alpelisib; first compound 0.04 µM) | relative viability (FH535 + Alpelisib; first compound 0.1265 µM) | relative viability (FH535 + Alpelisib; first compound 0.4 µM) | relative viability (FH535 + Alpelisib; first compound 1.265 µM) | relative viability (FH535 + Olaparib; first compound 0.04 µM) | relative viability (FH535 + Olaparib; first compound 0.1265 µM) | relative viability (FH535 + Olaparib; first compound 0.4 µM) | relative viability (FH535 + Olaparib; first compound 1.265 µM)
1 | Calu-6 | 0.938 | 1.05 | 0.956 | 0.792 | 0.908 | 1.03 | 0.997 | 0.772 | 0.912 | 0.849 | 0.772 | 0.547 | 0.815 | 0.83 | 0.877 | 0.777 | 1.12 | 1.14 | 1 | 0.76 | 1.02 | 0.911 | 0.848 | 0.748 | 0.797 | 0.814 | 0.783 | 0.601 | 0.972 | 1.04 | 1 | 0.814 | 1.07 | 0.982 | 0.866 | 0.87 | 0.583 | 0.594 | 0.532 | 0.507
2 | EBC-1 | 0.924 | 0.983 | 0.989 | 0.815 | 0.622 | 0.638 | 0.585 | 0.449 | 0.364 | 0.391 | 0.491 | 0.416 | 0.114 |  | 0.0911 | 0.101 | 0.237 | 0.209 | 0.196 | 0.151 | 0.44 | 0.289 | 0.402 | 0.383 | 0.178 | 0.182 | 0.192 | 0.178 | 0.854 | 0.899 | 0.91 | 0.646 | 0.737 | 0.82 | 0.868 | 0.816 | 0.675 | 0.657 | 0.712 | 0.566
